Values of other authors, collected in US20130172299A1, “Combination Therapy for Treatment of Bone and Mineral Disorders for Patients with Impaired Renal Function” (priority 2008, published 2013).

Key:
[1] = hemodialysis patients

Compound	inflammation in ESRD (300 mg po qd for 14 days)	serious adverse events (300 mg po qd, 15 patients treated for 14 days)	LDL cholesterol [1]	serum HDL cholesterol [1]	serum calcium levels [1]	serum phosphorous levels [1]
Cc1c(O)cc2c(c1C)O[C@](C)(CCC[C@H](C)CCC[C@H](C)CCCC(C)C)CC2 [Gamma tocopherol]	efficacy in reducing inflammation	no serious adverse events were reported				
NC(=O)c1cccnc1 [nicotinamide]			decreased	increased	did not change	significantly reduced
